Measurements reported in US7825278B2, “Substituted enaminones, their derivatives and uses thereof” (The Regents of the University of California, priority 2004, dated 2010).

biological target: GABAA receptor complex (GRC); experiment: [35S]TBPS binding assay (In Vitro Binding Assay 1); conditions: rat cortex P2 homogenate; 2 nM [35S]TBPS; 90 min at 25° C.
Protocol: [^35S]TBPS binding assay. The cortex from male Sprague-Dawley rats (weighing 160-200 g) was removed immediately after decapitation and dissected over ice. A P2 homogenate was prepared for binding assay as previously described (Gee, Mol. Pharmacol. 30: 218-225, 1986.). The tissue was homogenized in 0.32 M sucrose (J. T. Baker Chemical Co., Phillipsburg, N.J., USA) with a Teflon-coated pestle, followed by centrifugation at 1,000×g for 10 min. The supernatant was collected and centrifuged at 9,000×g for 20 min. The resultant P2 pellet was resuspended in ice-cold 50 mM sodium potassium phosphate (J. T. Baker) buffer (pH 7.4) containing 200 mM NaCl (J. T. Baker) and used immediately in binding assays. A 2 nM concentration of [^35S]TBPS (86 Ci/mmol; New England Nuclear, Boston, Mass., USA) was incubated with 100 μl of tissue homogenate (10% w/v) in the presence or absence of 5 μM GABA (Sigma Chem. Co., St. Louis, Mo.) and 5 μl aliquots of test drug dissolved in dimethyl sulfoxide (Sigma Chem. Co.) (≦10 μl of solvent used in all assays). At the concentration (≦1%) used, dimethyl sulfoxide had no effect on specific [^35S]TBPS binding. All assays were brought to a final volume of 1 ml with 50 mM sodium potassium phosphate buffer (pH 7.4) containing 200 mM NaCl. Non-specific binding was defined as binding in the presence of 2 μM TBPS (NEN, Boston, Mass.) and accounted for ˜30% of the total binding. Assays were terminated after a 90-min steady-state incubation at 25° C. by rapid filtration through glass fiber filters (no. 32; Schleicher & Schuell, Keene, N.H.). Filter-bound radioactivity was quantified by liquid scintillation spectrophotometry. The data were evaluated by nonlinear regression (GraphPad, Inc., San Diego, Calif.) to obtain IC50 (concentration at which half-maximal inhibition of radioligand occurs) values.

Structure (SMILES) | IC50 [nM] | Imax (inhibition of [^35S]TBPS binding) [%]
CCCNC(=O)C(=CNc1ccc(C)cc1)C(=O)c1ccccc1C [2-methyl-α-[[(4-methylphenyl)amino]methylene]-β-oxo-N-propyl-benzenepropanamide] | 100 | 100
CCOC(=O)C(=CNc1ccccc1Cl)C(=O)c1ccccc1Cl [ethyl 2-chloro-α-[[(2-chlorophenyl)-amino]methylene]-β-oxobenzenepropionate] | 420 | 100
CCOC(=O)C(=CNc1ccc(C#N)cc1)C(=O)c1ccccc1Cl [ethyl 2-chloro-α-[[(4-cyanophenyl)-amino]methylene]-β-oxobenzenepropionate] | 60 | 100
C#Cc1ccc(NC=C(C(=O)OCC)C(=O)c2ccccc2Cl)cc1 [ethyl 2-chloro-α-[[(4-ethynylphenyl)-amino]methylene]-β-oxobenzenepropionate] | 10 | 95
CCOC(=O)C(=CNc1ccc(I)cc1)C(=O)c1ccccc1Cl [ethyl 2-chloro-α-[[(4-iodophenyl)-amino]methylene]-β-oxobenzenepropionate] | 20 | 86
CCOC(=O)C(=CNc1ccc(F)cc1)C(=O)c1cccc2ccccc12 [ethyl α-[(4-fluorophenyl)amino]methylene]-β-oxo-1-naphthalenepropionate] | 200 | 81
C#Cc1ccc(NC=C(C(=O)NCCC)C(=O)c2ccccc2C)cc1 [α-[[(4-ethynylphenyl)amino]methylene]-2-methyl-β-oxo-N-propyl-benzenepropanamide] | 20 | 95
